US20220072101A1, “HARNESSING INFLAMMATION TO TREAT NEURODEVELOPMENTAL DISORDERS” (President and Fellows of Harvard College, priority 2019, published 2022)
“Also recorded” adds a separate entry of the source.

Tests used:
Type in all cases: in vivo, mouse
MIA offspring [1] = assay: Reciprocal social interaction assay; details: four hours after LPS
Experimental: Four hours prior to testing, mice were injected with vehicle or LPS. Two unfamiliar mice of the same treatment and background were placed in a fresh mouse cage and allowed to freely interact for 10 min. Videos were acquired using IC Capture (The Imaging Source®) at 640×480 aspect ratio and 25 fps. Social interaction (close following, push-crawl, nose-nose sniffing, and nose-anus sniffing) was scored by an observer blind to treatment and background^27.

MIA offspring [2] = assay: Three-chamber social approach assay in PBS and MIA offspring
Experimental: Adult male mice were assayed for sociability using a three-chamber social approach assay. The arena was constructed of white acrylic (50 cm×35 cm×30 cm). Wire cups (Spectrum Diversified®) were placed in the back left and right corner of the arena beneath water-filled 1 L bottles (Nalgene®). On Day 0, mice were habituated to the arena for 10 min. Immediately following habituation, mice were singly housed. On Day 1 (Pre), mice were placed in the center of the arena and allowed to freely explore. Following 10 min, mice were confined to the center of the arena. An inanimate object (rubber stopper) or a male conspecific were placed beneath the wire cups. Placement of the inanimate object and social target were alternated. Mice were then allowed to freely explore the arena for 10 min. Interaction time was defined as time spent in the areas circumscribing the wire cups (<2 cm). Sociability was defined as interaction time with the social target divided by total interaction time and expressed as a percentage. For experiments involving LPS injections, mice were injected with LPS ([…], i.p., L2630, Sigma) on Day 2 (Test), four hours prior to testing. […]
Adult male mice were implanted with cannula into S1DZ and allowed to recover for >2 weeks prior to behavioral experiments. On Day 1 (Pre) mice were assayed for sociability. On Day 2 (Test), mice were anesthetized briefly using isoflurane and either vehicle or IL-17a (50 ng/side in 1 μl at a rate of 180 nl/min, 7956-ML/CF, R&D®) was administered bilaterally into S1DZ through 250 μm-projecting injector tips (PlasticsOne®). Four hours after vehicle or IL-17a administration, mice were assayed for sociability. Cannula placements were verified using histology.
Adult male mice were assayed for sociability using a three-chamber social approach assay. The arena was constructed of white acrylic (50 cm×35 cm×30 cm). Wire cups (Spectrum Diversified®) were placed in the back left and right corner of the arena beneath water-filled 1 L bottles (Nalgene®). On day 0, mice were habituated to the arena for 10 min. Immediately following habituation, mice were singly housed. On day 1 (Pre), mice were placed in the center of the arena and allowed to freely explore. Following 10 min, mice were confined to the center of the arena. An inanimate object (rubber stopper) or a male conspecific were placed beneath the wire cups. Placement of the inanimate object and social target were alternated. Mice were then allowed to freely explore the arena for 10 min. Interaction time was defined as time spent in the areas circumscribing the wire cups (<2 cm). Sociability was defined as interaction time with the social target divided by total interaction time and expressed as a percentage. For experiments involving LPS injections, mice were injected with either saline (Veh) or LPS ([…], i.p., L2630, Sigma) on day 2 (Test), four hours prior to testing. For the experiment assaying sociability 72 hrs following LPS injection, mice used for 4 hr LPS sociability experiments were tested for sociability again at 72 hrs.
Adult male Vgat-Cre MIA offspring were bilaterally injected with virus encoding the inhibitory DREADD receptor fused to mCherry into the vLPO. Following >3 weeks of recovery, mice were assayed on the three-chamber social approach assay outlined above. Baseline sociability was assayed on day 1 (Pre). On day 2 and day 3, mice were injected with either Saline (Veh) or CNO (1.5 mg/kg i.p., BML-NS105, Enzo Life Sciences®), two hours prior to initiation of behavior. Injection order was counterbalanced. Following behavioral experiments, post-mortem histology was used to confirm mCherry expression within the vLPO. For experiments assaying the effect of CNO and LPS injection in Vgat-Cre PBS and MIA offspring that have not undergone surgery, baseline sociability was assessed on day 1. On day 2 and 3 mice received counterbalanced injections of CNO or vehicle. On day 4, mice were injected with LPS. […]

[3] = tested on: layer 2/3 pyramidal neurons in S1DZ; assay: Whole-cell patch clamp recordings in brain slices of Veh- or LPS-injected MIA offspring; details: S1DZ pyramidal neurons from LPS-injected MIA offspring

lipopolysaccharide [LPS]
reciprocal social interaction (MIA offspring [1]): rescue of MIA sociability deficits was also evident | sociability deficits (MIA offspring [2]; IFNγ or IL-17a knockout (KO) MIA offspring, LPS i.p., 4 hours): failed to rescue the sociability deficits in IFNγ or IL-17a knockout (KO) MIA offspring | LPS-induced rescue of sociability by age (MIA offspring [2]; MIA mice, young (2-5 months) and aged (9-12 month), 4 hr after LPS): observed in both young (2-5 months) and aged (9-12 month) mice; also recorded: effective in aged mice | sociability (deficit in sociability) (MIA offspring [2]; MIA offspring (WT), LPS 50 μg/kg i.p., 4 hours after injection): temporarily rescued; also recorded: robustly rescued their characteristic deficits in sociability; also recorded: restored sociability; also recorded: rescues sociability deficits in MIA offspring | sociability (MIA offspring [2]; MIA offspring deficient for IL-17Ra in the S1DZ (IL-17Ra fl/fl; EGFP:nCre), LPS i.p., 4 hours): failed to restore sociability | sociability rescue 72 hours following LPS (MIA offspring [2]; MIA offspring, 72 hours after LPS treatment): behavioral rescue was absent 72 hours following LPS treatment; also recorded: absent 72 hours following the treatment; also recorded: transient | baseline sociability (MIA offspring [2]; PBS (control) offspring, LPS i.p., 4 hours after injection): Neither vehicle nor LPS injection affected baseline sociability in PBS offspring; also recorded: did not affect baseline sociability in control offspring | sociability in MIA Vgat-Cre mice (MIA offspring [2]; Vgat-Cre MIA offspring without surgery, CNO 1.5 mg/kg i.p. or LPS): showed an increase in sociability upon LPS treatment | spiking in response to depolarizing current injections [3]: reduced spiking in response to depolarizing current injections
